Assay results taken from patent US10336761B2, “TGFβ receptor antagonist” (BRISTOL-MYERS SQUIBB COMPANY, priority 2015, dated 2019).

Target: HIS-TGFβR1 T204D (Homo sapiens (Human), UniProt P36897, T204D)
Assay: HTRF probe-displacement assay, HIS-TGFβR1 T204D
Format: binding
Details: 1 hour at room temperature

Chain of HIS-TGFβR1 T204D (P36897 34-503 T204D): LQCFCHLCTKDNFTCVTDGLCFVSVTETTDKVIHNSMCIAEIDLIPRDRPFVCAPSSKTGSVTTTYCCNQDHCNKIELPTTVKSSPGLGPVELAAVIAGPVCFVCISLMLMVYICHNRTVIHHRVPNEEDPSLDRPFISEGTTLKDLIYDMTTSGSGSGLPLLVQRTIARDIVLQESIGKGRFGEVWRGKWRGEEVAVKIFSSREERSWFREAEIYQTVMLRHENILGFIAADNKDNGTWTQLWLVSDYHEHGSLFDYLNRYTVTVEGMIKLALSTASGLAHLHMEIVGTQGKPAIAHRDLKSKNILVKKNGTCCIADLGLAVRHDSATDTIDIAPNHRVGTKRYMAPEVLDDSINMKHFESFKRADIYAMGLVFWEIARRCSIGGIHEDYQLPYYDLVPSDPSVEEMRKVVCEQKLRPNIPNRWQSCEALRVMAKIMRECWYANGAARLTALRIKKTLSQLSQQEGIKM

| SMILES | IC50 [nM] |
| --- | --- |
| COc1cccc(-c2nc(Nc3ccnc(NCCC(C)(C)O)c3)c3cccn3n2)n1 [Example 134, 4-[(4-{[2-(6-methoxypyridin-2-yl)pyrrolo[2,1-f][1,2,4]triazin-4-yl]amino}pyridin-2-yl)amino]-2-methylbutan-2-ol] | 360 |
| Cc1cccc(-c2nc(Nc3ccncc3C(=O)NCCCN3CCS(=O)(=O)CC3)c3cccn3n2)n1 [Example 36, N-(3-(1,1-dioxidothiomorpholino)propyl)-4-((2-(6-methylpyridin-2-yl)pyrrolo[2,1-f][1,2,4]triazin-4-yl)amino)nicotinamide] | 3 |
| CC(=O)Nc1nccc(Nc2nc(-c3cccc(C(F)F)n3)nn3cccc23)c1F [Example 229, N-[4-({2-[6-(difluoromethyl)pyridin-2-yl]pyrrolo[2,1-f][1,2,4]triazin-4-yl}amino)-3-fluoropyridin-2-yl]acetamide] | 5.1 |
| NC(=O)c1cnccc1Nc1nc(-c2cccc(C(F)F)n2)nn2cccc12 [Example 228, 4-({2-[6-(difluoromethyl)pyridin-2-yl]pyrrolo[2,1-f][1,2,4]triazin-4-yl}amino)pyridine-3-carboxamide] | 1.6 |
| NC(=O)c1cnccc1Nc1nc(-c2ccc(F)c(C(F)F)n2)nn2cccc12 [Example 224, 4-({2-[6-(difluoromethyl)-5-fluoropyridin-2-yl]pyrrolo[2,1-f][1,2,4]triazin-4-yl}amino)pyridine-3-carboxamide] | 1.4 |
| COCc1noc(CNC(=O)c2cnccc2Nc2nc(-c3cccc(C(F)F)n3)nn3cccc23)n1 [Example 205, 4-({2-[6-(difluoromethyl)pyridin-2-yl]pyrrolo[2,1-f][1,2,4]triazin-4-yl}amino)-N-{[3-(methoxymethyl)-1,2,4-oxadiazol-5-yl]methyl}pyridine-3-carboxamide] | 22 |
| CCOC(=O)c1cc2c(Nc3ccncc3)nc(-c3cccc(C)n3)nn2c1 [Example 216, Ethyl 2-(6-methylpyridin-2-yl)-4-[(pyridin-4-yl)amino]pyrrolo[2,1-f][1,2,4]triazine-6-carboxylate] | 33 |
| O=C(NCCN1CCCC1)c1cnccc1Nc1nc(-c2cccc(C(F)(F)F)n2)nn2cccc12 [Example 170, N-[2-(pyrrolidin-1-yl)ethyl]-4-({2-[6-(trifluoromethyl)pyridin-2-yl]pyrrolo[2,1-f][1,2,4]triazin-4-yl}amino)pyridine-3-carboxamide] | 17 |

Now those with a lower IC50, led by results:

| IC50 [nM] | SMILES |
| --- | --- |
| 1.1 | Fc1cnccc1Nc1nc(-c2cccc(C(F)F)n2)nn2ccc(CN3CCC(F)(F)CC3)c12 [Example 23, N-{2-[6-(difluoromethyl)pyridin-2-yl]-5-[(4,4-difluoropiperidin-1-yl)methyl]pyrrolo[2,1-f][1,2,4]triazin-4-yl}-3-fluoropyridin-4-amine] |
| 0.93 | Cc1cccc(-c2nc(Nc3ccncc3F)c3c(CN4CCN(CCO)CC4)ccn3n2)n1 [Example 259, 2-[4-({4-[(3-fluoropyridin-4-yl)amino]-2-(6-methylpyridin-2-yl)pyrrolo[2,1-f][1,2,4]triazin-5-yl}methyl)piperazin-1-yl]ethan-1-ol] |
| < 0.76 | CC1(NCc2ccn3nc(-c4ccccn4)nc(Nc4ccncc4F)c23)CCOCC1 [Example 242, 3-fluoro-N-(5-{[(4-methyloxan-4-yl)amino]methyl}-2-(pyridin-2-yl)pyrrolo[2,1-f][1,2,4]triazin-4-yl)pyridin-4-amine] |
| 0.82 | Cc1nc(-c2nc(Nc3ccncc3Cl)c3cccn3n2)ccc1F [Example 3, 3-chloro-N-[2-(5-fluoro-6-methylpyridin-2-yl)pyrrolo[2,1-f][1,2,4]triazin-4-yl]pyridin-4-amine] |
| 0.86 | CC(=O)Nc1cc(Nc2nc(-c3cccc(F)n3)nn3cccc23)ccn1 [Example 291, N-(4-{[2-(6-fluoropyridin-2-yl)pyrrolo[2,1-f][1,2,4]triazin-4-yl]amino}pyridin-2-yl)acetamide] |
